In patent publication US11472814B2, “Thienopyranones and furanopyranones as checkpoint inhibitors and modulators of anti-tumor immunity” (SignalRx Pharmaceuticals, Inc., priority 2017, dated 2022):
Values joined by “and” are separate entries in the source; they are usually repeats but may differ in a detail not shown here. Identical values can stand only once.

Legend:
[1] = system: Bone marrow derived macrophages (BMDMs), M1 gene expression; assay: M1 marker mRNA in LPS stimulated bone marrow derived macrophages (RT PCR); format: cell-based, murine
Description: […] M2 markers Mmr, Ym1, Fizz1 and Mgl mRNA and M1 markers I11, 116 and Tnfa mRNA was quantitated by RT PCR. Values are mean±SEM (n=3-4). Expression of gene of interest is normalized to GAPDH. […] The data provide direct evidence that Compound 1 can block the immunosuppressive macrophage M2 gene expression and activate the M1 gene expression and therefore activate antitumor innate immune cell differentiation in vitro.
(§1) Relative mRNA expression of IL4 or LPS polarized genes in murine bone marrow derived macrophages (BMDMs) treated with various concentrations of inhibitors in vitro. Conclusion: Compound 3 suppressed in vitro macrophage specific immunosuppressive M2 gene expression markers and augmented macrophage stimulatory immune response M1 genes respectively.

[2] = system: T cells in CT26 tumors; assay: Flow cytometric quantification of T cells infiltrating CT26 tumors; format: in vivo, mice
Description: Effect of Compound 3 treatment of CT26 tumor bearing mice in vivo 3 mg/kg by intraperitoneal injection QD (IP) for 14 days on number of CD3+/CD8+ T cells infiltrating the tumor tissue. Conclusion: Compound 3 increased CD8+ T cells in the tumor compartment by 800% in vivo. (n=6, p<0.001, t test) as compared to vehicle control treated mice.
Values represent mean±SEM. Conclusion: Compound 3 decreased CD4+ T cells by 5.6-fold and increased CD8+ T cells in the tumor compartment by 6% in vivo as compared to vehicle control treated mice.

[3] = system: Bone marrow derived macrophages (BMDMs), M2 gene expression; assay: M2 marker mRNA in IL4 stimulated bone marrow derived macrophages (RT PCR); format: cell-based, murine
Description: Bone marrow derived macrophages (MOs) (BMDMs) were exposed to IL4 or LPS for 24 hours to stimulate the M2 or M1 macrophage transition in presence of Compound 1 and the known SYK inhibitor Bay-61-3606 at 1 μM conc. M2 markers Mmr, Ym1, Fizz1 and Mgl mRNA and M1 markers I11, 116 and Tnfa mRNA was quantitated by RT PCR. Values are mean±SEM (n=3-4). Expression of gene of interest is normalized to GAPDH. […] The data provide direct evidence that Compound 1 can block the immunosuppressive macrophage M2 gene expression and activate the M1 gene expression and therefore activate antitumor innate immune cell differentiation in vitro.
as §1

[4] = system: CT26 tumors; assay: CT26 tumor growth in immunocompetent Balb/c mice; format: in vivo
Description: We investigated the effect of Compound 3 on immune cell in vitro and on tumor growth in in vivo in immunocompetent syngeneic tumor models and the effects on the macrophage and T cell immune compartment in vivo by this compound. […] In order to distinguish whether Compound 3 blocks tumor growth due to its effect on immune cell compartment and not on tumor compartment, we tested the effect of this chemotype on CT26 tumor growth in immunodeficient NSG mice vs immunocompetent Balb/c mice. […] Compound 3 has combinatorial immune-oncologic activity in vivo to stimulate anti-cancer innate and adaptive immunity in well-defined accepted immune competent murine models for cancer immunotherapy.
Tumor volumes of CT26 inoculated subcutaneously in Balb/c mice treated with 3 mg/Kg Compound 3, or 200 ug anti-PDL1 or both. Conclusion: Compound 3 has greater antitumor immune activating activity as compared to anti-PDL1 monoclonal antibody treatment in this in vivo immune-oncology model. Compound 3 suppressed tumor growth by 88% in this model (n=6, p<0.001, t test) as compared to vehicle control treated mice.
Conclusion: this establishes effect of Compound 3 as immune-oncologically active agent in cancer immunotherapy. In immunocompetent mice with same tumor cell ino kculum Compound 3 inhibited CT26 tumor growth by 58% decrease in tumor volume. (n=x, p<0.001, t test).
In contrast to above data, Compound 3 has a marked significant inhibitory effect on CT26, LLC and MC38 tumor growth in immunocompetent murine models. Conclusion: this establishes effect of Compound 3 as immune-oncologically active agent in cancer immunotherapy. In immunocompetent mice with same tumor cell inoculum Compound 3 inhibited tumor growth by from 58-68%. p<0.001 in all experiments compared to vehicle control.

[5] = system: T cells in LLC tumors; assay: Quantification of CD3+, CD4+ and CD8+ T cells in LLC tumors; format: in vivo, mice
Description: Quantification of CD3+, CD4+ and CD8+ T cells in the LLC tumors treated with Compound 3 (n=3, *p<0.05, t test). Conclusion: Compound 3 decreased CD4+ cells by 50% and increased CD8+ T cells in the tumor compartment by 7% in vivo as compared to vehicle control treated mice.

[6] = Table 8, 200 nM, LPS polarized murine BMDMs, control = 1
[7] = CT26 tumors, flow cytometry, vs vehicle
[8] = Table 7, 200 nM, IL4 polarized murine BMDMs, control = 1

In the case of `Cc1nn(-c2ccnc(Nc3ccc(-c4csc5c(=O)cc(N6CCOCC6)oc45)cc3)n2)cc1CN1CCC1` [Compound 3, 3-[p-(4-{4-[(1-Azetidinyl)methyl]-3-methyl-1H-pyrazol-1-yl}-2-pyrimidinylamino)phenyl]-5-morpholino-4-oxa-1-thia-7-indenone], the “Ifng relative mRNA expression (M1 gene)” value [1, 6] is reported as 5.043 ± 1.9, the “Il1 relative mRNA expression (M1 gene)” value [1, 6] is reported as 7.19 ± 0.9 and the “Il6 relative mRNA expression (M1 gene)” value [1, 6] is reported as 2.5 ± 0.2. The “Nos2 relative mRNA expression (M1 gene)” value [1, 6] was 2.458 ± 0.31, the “Tnfa relative mRNA expression (M1 gene)” value [1, 6] was 2.2 ± 0.3 and the “macrophage stimulatory immune response M1 genes” value ([1]; murine BMDMs, LPS polarized, various concentrations) was “augmented”. The “increase of CD8+ T cells in the tumor compartment” value (shortened to “increase of CD8+ T cells”) ([2]; CT26, 3 mg/kg IP QD 14 days, CD3+/CD8+, vs vehicle) was 800%, the “decrease of CD4+ T cells” value [2, 7] was 5.6 fold and the “increase of CD8+ T cells” value [2, 7] was 6%. The “CD3+ T cells (% of live cells)” value ([2]; CT26 tumors, Compound 3 3 mg/kg IP QD 14 days, vehicle 1.1 ± 0.29) was 8 ± 0.46 % of live cells, the “CD8+ T cells (% of CD3+ T cells)” value ([2]; CT26 tumors, flow cytometry, mean±SEM, n=3, vehicle 56 ± 3.9) was 62 ± 2.0 % of CD3+ T cells and the “CD4+ T cells (% of CD3+ T cells)” value ([2]; CT26 tumors, flow cytometry, mean±SEM, n=3, vehicle 56 ± 5.29) was 9.5 ± 0.7 % of CD3+ T cells. For the same compound, the “Arg relative mRNA expression (M2 gene)” value [3, 8] was 0.107 ± 0.01, the “Il10 relative mRNA expression (M2 gene)” value [3, 8] was 0.058 ± 0.01 and the “Mmr relative mRNA expression (M2 gene)” value [3, 8] was 0.143 ± 0.03. For the same compound, the “Tgfb relative mRNA expression (M2 gene)” value [3, 8] was 0.458 ± 0.01, the “Vegf relative mRNA expression (M2 gene)” value [3, 8] was 0.294 ± 0.04 and the “macrophage immunosuppressive M2 gene expression markers” value ([3]; murine BMDMs, IL4 polarized, various concentrations) was “suppressed”. For the same compound, the “CT26 tumor growth suppression” value ([4]; Balb/c mice, 3 mg/Kg, n=6, vs vehicle) was 88%, the “% Growth inhibition compared to control” value ([4]; CT26 subcutaneous in Balb/c mice, 3 mg/Kg Compound 3, 200 ug anti-PDL1 or both, n=6) was 88 ± 10% and the “% Growth inhibition of CT26 tumor” value ([4]; immunocompetent Balb/c mice, vs vehicle) was 58% and 58 +/− 10%. For the same compound, the “CT26 tumor growth, combination” value ([4]; in combination with anti-PDL1 antibody) was “decrease in tumor growth”, the “CD4+ T cells (% of CD3+ T cells)” value ([5]; LLC tumor) was 23 ± 7, % of CD3+ T cells and the “CD8+ T cells (% of CD3+ T cells)” value ([5]; LLC tumor) was 34 ± 1.1, % of CD3+ T cells. For the same compound, the “decrease of CD4+ cells” value ([5]; LLC tumor, vs vehicle) was 50% and the “increase of CD8+ T cells” value ([5]; vs vehicle) was 7%.
